Experiments:
Format in all cases: in vivo
[1] = test system: Tobacco Budworm [Heliothis virescens (Fabricius)] eggs; experiment: Tobacco budworm egg test (TBW-E); conditions: percent in solution
[2] = test system: Maize weevil [Sitophilus Zeamais (Motschulsky)]; experiment: Maize weevil test (MW); conditions: adult weevils, treated corn seeds, 48 hours, percent in solution
How it was run: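 Adult weevils (10) were placed with four corn seeds that had been dipped 2-3 s in compound dissolved in 50:50 acetone:water, then dried, and held at about 25° C. Mortality was scored at 48 h. LC50 was taken from dosage-mortality curves and expressed as percent compound in solution, from a 0.01% top concentration.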

[3] = test system: Aster Leafhopper [Macrosteles fascifrens (Stal)]; experiment: Aster leafhopper test (LH); conditions: adults/nymphs, 48 hours, percent in solution
[4] = test system: Housefly [Musca domestica]; experiment: Housefly insecticidal test (HF); conditions: per 25 female houseflies, 48 hours
[5] = test system: Cabbage Looper [Trichoplusia ni (Hubner)]; experiment: Cabbage looper test (CL); conditions: second-instar larvae, 3-5 days, percent in solution

SMILES	LC50 TBW E [1] [%]	LC50 MW [2] [%]	LC50 LH [3] [%]	LC50 HF [4] [µg]	LC50 CL [5] [%]
Cc1ccc(N=C(OCc2ccc(F)c(Oc3ccc(F)cc3)c2)C(C)C)cc1Cl [Compound 357]	> 0.1	0.01	< 0.05	< 100	> 0.1
Cc1cc(N=C(OCc2ccc(F)c(Oc3ccccc3)c2)C(C)C)ccc1Br [Compound 358]	> 0.1	> 0.01	< 0.05	< 100	> 0.1
Cc1cc(N=C(OCc2ccc(F)c(Oc3ccc(F)cc3)c2)C(C)C)ccc1Br [Compound 359]	0.023	> 0.01	0.05	< 100	> 0.1
CCc1ccc(N=C(OCc2ccc(F)c(Oc3ccccc3)c2)C(C)C)cc1 [Compound 360]	> 0.1	> 0.01	< 0.05	< 100	0.006
CCc1ccc(N=C(OCc2ccc(F)c(Oc3ccc(F)cc3)c2)C(C)C)cc1 [Compound 361]	0.04	> 0.01	< 0.05	< 100	0.001
CSc1cccc(N=C(OCc2ccc(F)c(Oc3ccccc3)c2)C(C)C)c1 [Compound 362]	> 0.1	> 0.01	> 0.05	< 100	> 0.1
COc1ccc(N=C(OCc2ccc(F)c(Oc3ccc(F)cc3)c2)C(C)C)cc1OC [Compound 363]	> 0.1	> 0.01	> 0.05	< 100	> 0.1
CC(C)C(=Nc1ccc(Br)c(C(F)(F)F)c1)OCc1ccc(F)c(Oc2ccc(F)cc2)c1 [Compound 364]	0.025	> 0.01	< 0.05	< 100	0.00045
CC(C)C(=Nc1ccc(C(F)(F)F)cc1)OCc1cccc(Oc2ccc(Cl)cc2)c1 [Compound 365]	0.038	> 0.01	< 0.05	> 100	0.00025
CC(C)C(=Nc1ccc2c(c1)OCO2)OCc1ccc(F)c(Oc2ccc(Cl)cc2)c1 [Compound 366]	0.012	> 0.01	0.05	< 100	0.0007
CC(C)C(=Nc1ccc2c(c1)OCO2)OCc1cccc(Oc2ccc(C(C)(C)C)cc2)c1 [Compound 367]	> 0.1	> 0.01	> 0.05	> 100	< 0.1
CC(C)C(=Nc1ccc(F)cc1)OCCc1cccc(Oc2ccccc2)c1 [Compound 456]	> 0.05	> 0.01	> 0.05	> 100	0.017
CC(C)C(=Nc1ccc2c(c1)OCO2)OCc1cccc(Oc2ccc(Cl)cc2)n1 [Compound 466]	> 0.1	0.01	> 0.05	13	0.0008
CC(C)C(=Nc1ccc(F)c(Cl)c1)OCc1ccc(OCc2ccccc2)cc1 [Compound 475]	> 0.1	> 0.01	> 0.05	> 100	0.008
CC(C)C(=Nc1ccc(F)c(Cl)c1)OCc1cccc(OCc2ccc(F)cc2)c1 [Compound 490]	> 0.1	> 0.01	> 0.05	> 100	0.0045
CC(C)C(=Nc1ccc(F)c(Cl)c1)OCc1cccc(Oc2ccc(Br)cc2)n1 [Compound 492]	0.015	> 0.01	> 0.05	15	0.00028
CC(C)C(=Nc1ccc(F)c(Cl)c1)OCc1cccc(Nc2ccc(F)cc2)c1 [Compound 512]	> 0.1	> 0.01	> 0.05	35	0.003
CC(C)C(=Nc1cccc(C(F)(F)F)c1)OCc1cccc(Nc2ccc(F)cc2)c1 [Compound 513]	> 0.1	> 0.01	> 0.05	81	0.007
CC(C)C(=Nc1ccc(Cl)c(Cl)c1)OCc1cccc(Nc2ccc(F)cc2)c1 [Compound 514]	> 0.1	> 0.01	> 0.05	> 100	0.008

SMILES	LC50 TBW E [1] [%]	LC50 MW [2] [%]	LC50 LH [3] [%]	LC50 HF [4] [µg]	LC50 CL [5] [%]
CC(C)C(=Nc1ccc2c(c1)OCO2)OCc1cc(Oc2ccc(F)cc2)ccn1 [Compound 515]	> 0.1	> 0.01	> 0.05	28	0.0015
CC(C)C(=Nc1ccc(F)c(Cl)c1)OCc1cc(Oc2ccc(Cl)cc2)ccn1 [Compound 516]	> 0.1	> 0.01	> 0.05	> 100	0.008
CC(C)C(=Nc1cccc(C(F)(F)F)c1)OCc1ccnc(Oc2ccc(Cl)cc2)c1 [Compound 517]	0.04	> 0.01	> 0.05	80	0.0008
CC(C)C(=Nc1cccc(C(F)(F)F)c1)OCc1cccc(Oc2ccc(Cl)cn2)c1 [Compound 518]	> 0.1	> 0.01	> 0.05	> 100	0.00075
C#CC(OC(=Nc1cccc(C(F)(F)F)c1)C(C)C)c1cccc(Oc2ccccc2)c1 (centres unmarked) [Compound 519]	> 0.1	> 0.01	> 0.05	60	0.0037
COCc1c(F)c(F)c(COC(=Nc2ccc(F)c(Cl)c2F)C(C)C)c(F)c1F [Compound 522]	> 0.1	> 0.01	0.05	17.5	> 0.1
CCC(=Nc1ccc(F)c(F)c1)OCc1coc(Cc2ccccc2)c1 [Compound 524]	> 0.1	> 0.01	> 0.05	5.2	> 0.1
CC(C)(C)C(=Nc1ccc(F)c(F)c1)OCc1coc(Cc2ccccc2)c1 [Compound 525]	> 0.1	> 0.01	> 0.05	> 100	< 0.1
CC(=Nc1ccc(F)c(F)c1)OCc1coc(Cc2ccccc2)c1 [Compound 526]	> 0.1	> 0.01	> 0.05	8.3	> 0.01
CC(C)C(=Nc1ccc(F)c(Cl)c1)OCc1cccc(Oc2ccc(Cl)cn2)c1 [Compound 527]	0.035	> 0.01	> 0.05	47	0.00065
CC(C)C(=Nc1cccc(C(F)(F)F)c1)OCc1cc(Oc2ccc(F)cc2)ccn1 [Compound 528]	> 0.1	> 0.01	> 0.05	59.1	0.0075
CC(C)C(=Nc1ccc(F)c(Cl)c1)OCc1cc(Oc2ccc(F)cc2)ccn1 [Compound 529]	> 0.1	> 0.01	> 0.05	27.7	> 0.0025
CC(C)C(=Nc1ccc2c(c1)OCO2)OCc1cccc(Oc2ccc(Cl)cn2)c1 [Compound 532]	> 0.1	> 0.01	> 0.05	> 100	< 0.1
C#CC(OC(=Nc1ccc(F)c(Cl)c1)C(C)C)c1cccc(Oc2ccccc2)c1 (centres unmarked) [Compound 533, N-(3-chloro-4-fluorophenyl)-O-[1-(3-phenoxyphenyl)-2-propyn-1-yl]isobutyrimidate]	> 0.1	> 0.01	> 0.05	60	> 0.1
CC(C)C(=Nc1ccc(F)c(Cl)c1)OCC#CCOc1ccccc1 [Compound 534]	> 0.1	> 0.01	> 0.05	> 100	< 0.1
Cc1c(COC(=Nc2ccc(C(C)(C)C)cc2)C(C)C)cccc1-c1ccccc1 [Compound 536]	> 0.1	> 0.01	> 0.05	> 100	< 0.1
CC(C)C(=Nc1ccc([N+](=O)[O-])cc1)OCc1coc(Cc2ccccc2)c1 [Compound 539]	> 0.1	> 0.01	> 0.05	22	> 0.1
CC(C)C(=Nc1ccc2c(c1)OCO2)OCc1ccnc(Oc2ccccc2)c1 [Compound 540]	> 0.1	> 0.01	> 0.05	> 100	< 0.1

Source: US5089623A, “Certain imidate insecticides” (Imperial Chemical Industries Plc, priority 1990, dated 1992)
